Key:
[1] = system: macrophages; test: zebrafish tail fin wounding assay, macrophage migration to wounded site; assay type: in vivo, zebrafish (Danio rerio); settings: Example 2; PPT 50 μM; F1, Rh1, Rg1 100 μM; Bec positive control; 3 dpf
Protocol: Zebrafish (Danio rerio) were maintained and handled according to the guidelines from the Zebrafish Model Organism Database (http://zfin.org) and in compliance with the directives of the local animal welfare committee of Leiden University. Zebrafish were exposed to a 14 h light and 10 h dark cycle to maintain circadian rhythmicity. Fertilization was performed by natural spawning at the beginning of the light period. […] The following zebrafish lines were used in this study: the double transgenic line Tg(mpx:GFP^i114/mpeg1:mCherry^umsF001), in which neutrophils and macrophages are fluorescently labeled (green and red, respectively), and the Tg(9xGCRE-HSV.UI23:EGFP)^ia20 reporter line, in which the gene encoding enhanced green fluorescent protein (EGFP) is driven by a GRE-containing promoter.
For the tail fin wounding experiments, 20 larvae at 2 or 3 days post-fertilization (dpf) were utilized for each experimental group. For wounding, larvae were anesthetized in egg water containing 0.02% buffered aminobenzoic acid ethyl ester (tricaine; Sigma-Aldrich). Larvae were placed on Petri dishes coated with 2% agarose under a Leica M165C stereomicroscope (Leica Microsystems, Wetzlar, Germany), and the tails were partly amputated using a 1-mm sapphire blade (World Precision Instruments, Sarasota, FL, USA). For quantification of leukocyte migration, larvae were fixed overnight in 4% paraformaldehyde (PFA) at 4° C. The next day, fixed larvae were washed with Phosphate Buffered Saline (PBS) containing 0.1% Tween 20, and stored at 4° C. until imaging.
The macrophages were detected based on their red (mCherry) fluorescence, and neutrophils based on their green (EGFP) fluorescence. To quantify the number of macrophages and neutrophils recruited to the wounded area, the cells in a defined area of the tail were determined by blinded manual counting.
Zebrafish (Danio rerio) were maintained and handled according to the guidelines from the Zebrafish Model Organism Database (http://zfin.org) and in compliance with the directives of the local animal welfare committee of Leiden University. Zebrafish were exposed to a 14 h light and 10 h dark cycle to maintain circadian rhythmicity. Fertilization was performed by natural spawning at the beginning of the light period. […] The following zebrafish lines were used in this study: AB/TL wild type, the transgenic lines Tg(mpx:GFP^i114/mpeg1:mCherry^umsF001)[14, 15], and Tg(9xGCRE-HSV.UI23:EGFPia^20)[16], and the mutant lines grs357[20].
For the tail fin wounding experiments, 2- or 3-days post-fertilization (dpf) larvae were anesthetized in egg water containing 0.02% buffered aminobenzoic acid ethyl ester (tricaine; Sigma-Aldrich). Larvae were placed in Petri dishes coated with 2% agarose under a Leica M165C stereomicroscope (Leica Microsystems, Wetzlar, Germany), and the tails were partly amputated using a 1-mm sapphire blade (World Precision Instruments, Sarasota, FL, USA).
In experiments in which the leukocyte migration was used as a readout, larvae were subjected to treatment with chemicals as indicated, starting at 2 h before the amputation (pretreatment), and treatment was continued for 4 h after the tail fin amputation (20 larvae per group, unless indicated otherwise). In some experiments, a 24 h treatment with MZ31 (10 μM) was started at 2 dpf, and these treatments were continued during the pretreatment and treatment with the other chemicals. At 4 h after amputation, the larvae were fixed in 4% paraformaldehyde (PFA) overnight at 4° C. The next day, fixed larvae were washed with Phosphate Buffered Saline (PBS) containing 0.1% Tween 20 and stored at 4° C. until imaging. […] The macrophages were detected based on red (mCherry) fluorescence and neutrophils on their green (EGFP) fluorescence. To quantify the number of macrophages and neutrophils recruited to the wounded area, the cells in a defined area of the tail were determined by blinded manual counting. […]

[2] = system: zebrafish larvae; test: tail fin regeneration assay; settings: for tissue regeneration of tail fin: Example 2, amputation at 2 dpf, read at 5 dpf; for tissue regeneration upon wounding: Example 2, wounded at 2 dpf (second statement on FIG. 8F); for regeneration of amputated tail fin (length of regenerated tissue at 5 dpf): 0-5 dpf, 10 μM beclomethasone or dexamethasone, 50 μM Rg1 or combinations, amputation at 2 dpf
Protocol: In experiments in which the length of regenerated tail fin tissue after wounding, or the larval body length, was used as a readout, chemical treatments were started at 2 hours post-fertilization (hpf) and continued until 5 dpf, as indicated (15 larvae per treatment group). During this period, solutions were refreshed daily. For the regeneration experiments, tail fins were amputated at 2 dpf. At 5 dpf, larvae were fixed overnight in 4% PFA at 4° C. For determination of the larval length and the regeneration of the tail fins, larvae were imaged using a LeicaMZ16FA fluorescence stereomicroscope supported by LAS 3.7 software. The length of the entire larva or the newly grown tissue was measured using ImageJ software. The newly grown tissue can be visually distinguished from the old tissue, enabling precise measurement of its length.

Row | SMILES | macrophage migration upon tail fin wounding [1] | tissue regeneration of tail fin [2] | tissue regeneration upon wounding [2] | tissue regeneration effect in presence of Gba2 inhibitor MZ31 ([2]; Example 2, wounded, with MZ31) | regeneration of amputated tail fin (length of regenerated tissue at 5 dpf) [2]
1 | CC(C)=CCC[C@](C)(O)[C@H]1CC[C@]2(C)[C@@H]1[C@H](O)C[C@@H]1[C@@]3(C)CC[C@H](O)C(C)(C)[C@@H]3[C@@H](O[C@@H]3O[C@H](CO)[C@@H](O)[C@H](O)[C@H]3O)C[C@]12C [Rh1] | without affecting the macrophage migration | did not show any side effects | still not show any effect on the glucose or cortisol level or on tissue regeneration |  | 
2 | CC(C)=CCC[C@](C)(O[C@@H]1O[C@H](CO)[C@@H](O)[C@H](O)[C@H]1O)[C@H]1CC[C@]2(C)[C@@H]1[C@H](O)C[C@@H]1[C@@]3(C)CC[C@H](O)C(C)(C)[C@@H]3[C@@H](O)C[C@]12C [F1] | without affecting the macrophage migration | did not show any side effects | minor effect on the cortisol level and on tissue regeneration | These latter effects were Gba2-dependent | 
3 | CC(C)=CCC[C@](C)(O[C@@H]1O[C@H](CO)[C@@H](O)[C@H](O)[C@H]1O)[C@H]1CC[C@]2(C)[C@@H]1[C@H](O)C[C@@H]1[C@@]3(C)CC[C@H](O)C(C)(C)[C@@H]3[C@@H](O[C@@H]3O[C@H](CO)[C@@H](O)[C@H](O)[C@H]3O)C[C@]12C [Rg1, (3β,6α, 12β)-3,12-Dihydroxydammar-24-ene-6,20-diyl bis-β-D-glucopyranoside] | without affecting the macrophage migration | did not show any side effects | still not show any effect on the glucose or cortisol level or on tissue regeneration |  | did not affect the regenerative process
4 | C[C@H]1C[C@H]2[C@@H]3CCC4=CC(=O)C=C[C@]4(C)[C@@]3(Cl)[C@@H](O)C[C@]2(C)[C@@]1(O)C(=O)CO [beclomethasone, reference compound] | without affecting the macrophage migration | inhibited the tissue regeneration |  |  | inhibited the regeneration
5 | CC(C)=CCC[C@](C)(O)[C@H]1CC[C@]2(C)[C@@H]1[C@H](O)C[C@@H]1[C@@]3(C)CC[C@H](O)C(C)(C)[C@@H]3[C@@H](O)C[C@]12C [PPT, Protopanaxatriol] | without affecting the macrophage migration | considerably inhibited the regeneration of the tail fin after wounding |  |  | 
